# Target: α-amylase
# Assay: In vitro α-amylase inhibition assay
# Assay type: biochemical
# Settings: phosphate buffer pH 6.8, 37 °C
row,Molecule,IC50 α-amylase
1,"O=C(/C=C/c1ccc(O)cc1)OC[C@H]1O[C@@H](Oc2c(-c3ccc(O)cc3)oc3cc(O)cc(O)c3c2=O)[C@H](O)[C@@H](O)[C@@H]1O [Compound 2, Tiliroside]",180.6 ± 2.04 µg/mL
2,"O=c1c(O)c(-c2ccc(O)cc2)oc2cc(O)cc(O)c12 [Compound 3, Kaempferol]",135.2 ± 1.84 µg/mL
3,"C[C@@H]1O[C@@H](OC[C@H]2O[C@@H](Oc3c(-c4ccc(O)c(O)c4)oc4cc(O)cc(O)c4c3=O)[C@H](O)[C@@H](O)[C@@H]2O)[C@H](O)[C@H](O)[C@H]1O [Compound 5, Rutin]",177.2 ± 2.01 µg/mL
4,Quercetin [Compound 4],118.4 ± 1.38 µg/mL
